Experiment [1] concerns human melanoma cells (MDA-MB-435S). The experiment in a line: Anoikis assay, human melanoma cells. Format: cell-based. Conditions: 10 nM GRP and/or 1 µM RC, 48 h, poly-HEMA, low serum, annexin V/7-AAD. As to the method: (§1) Six-well plates were coated with poly-HEMA to prevent cell attachment to the well surface. Cells were seeded in low-serum medium containing 10 nM GRP and/or 1 µM RC. Then, 48 hours after cell seeding, cells were collected and washed with ice-cold PBS twice and resuspended in annexin V binding buffer (556454, BD Biosciences) and incubated at room temperature in the dark with 7-amino-actinomycin D (7-AAD, 559925, BD Biosciences) and annexin-V for 15 min. Annexin V was coupled to FITC (556420, BD Biosciences) for the 1057 and MDA-MB-435S cell lines and to PE (556421, BD Biosciences) for the other cell lines. Cells were sorted using a FACS LSRFortessa (BD Biosciences) to determine the percentage of annexin V- and/or 7-AAD-positive cells using a 488 nm laser for annexin V-FITC and annexin V-PE and a 675 nm laser for7-AAD. All quantification was performed using Flow-Jo.

In experiment [2] the test system is YAP1 activation signature. The experiment in a line: YAP1 activation signature (GSEA) and YAP1 score by RNA-seq, human melanoma cell lines. Format: cell-based. The note with it: 4 h, 10 nM GRP. As to the method:
The transcriptome, copy-number alteration, mutations and corresponding clinical data of the TCGA–SKCM (n = 473), TCGA–BRCA (n = 1,215), TCGA–STAD (n = 450), TCGA–LUSC (n = 553) and TCGA–KIRC (n = 606) datasets were retrieved from the National Cancer Institute Genomic Data Commons repository using the TCGAbiolinks R package in August 2022 (ref. [51]). The mRNA levels were calculated from RNA-sequencing read counts using RNA-Seq V2 RSEM and normalized to TPM. Expression of CDH1, CCND1, BRAF and KRAS was modelled over time using LOWESS smoothing with 1,860 points. Expression levels from acral melanoma were retrieved from GEO under accession number GSE162682. Survival analyses were carried out by separating the cohort into two groups according to gene expression. The threshold was set to 1 TPM, commonly considered to be the limit for sufficient protein expression of the transcript. The negative group was set to an expression 0.1 TPM or less to have clear separation in terms of expression (factor 10) from the positive group. […] The scoring of YAP1 activation was determined from the expression of CYR61, CTGF, TEAD4, LATS2 and CRIM1. […] The anoikis-resistance score was calculated on the basis of the expression of S100A7A, MTPN, ATP10B, S100A8, RSAD2, RENBP, CDHR1 and CD36. The ER-activation score was calculated according to the expressions of GATA4, SDK2, EGR3, IL19, GSG1L, RSPO1, PGR, IL24 and PDZK1. […]
RNA was extracted from cells and mouse tumours using the miRNeasy kit (Qiagen, 217004), according to the manufacturer’s protocol. RNA integrity (RIN) was measured using an Agilent Bioanalyser 2100 (Agilent Technologies) and an RNA nano 6000 kit (5067-1511, Agilent Technologies). […] RNA concentrations were measured using a NanoDrop (NanoDrop Technologies). […] The libraries were equimolarly pooled and subjected to qPCR quantification using the KAPA library quantification kit (Roche). […] Reads were mapped to the mm10 mouse reference genome (gencode m13 version-GRCm38.p5) or hg38 human reference genome (gencode 42 version-GRCh38.p13) using STAR[60]. […]

The subject of experiment [3] is mouse melanoma cells (1057, 1014, 1062). The experiment in a line: Anoikis assay, mouse melanoma cells. It is filed as cell-based. Conditions: 48 h. As to the method: as §1
For experiment [4], the system named is YAP1 activation signature. Description: YAP1 activation signature (GSEA) and Yap1 score by RNA-seq, murine melanoma cell lines. Format: cell-based, mouse. Conditions: 4 h, 10 nM GRP. As to the method: The transcriptome, copy-number alteration, mutations and corresponding clinical data of the TCGA–SKCM (n = 473), TCGA–BRCA (n = 1,215), TCGA–STAD (n = 450), TCGA–LUSC (n = 553) and TCGA–KIRC (n = 606) datasets were retrieved from the National Cancer Institute Genomic Data Commons repository using the TCGAbiolinks R package in August 2022 (ref. [51]). The mRNA levels were calculated from RNA-sequencing read counts using RNA-Seq V2 RSEM and normalized to TPM. Expression of CDH1, CCND1, BRAF and KRAS was modelled over time using LOWESS smoothing with 1,860 points. Expression levels from acral melanoma were retrieved from GEO under accession number GSE162682. Survival analyses were carried out by separating the cohort into two groups according to gene expression. The threshold was set to 1 TPM, commonly considered to be the limit for sufficient protein expression of the transcript. The negative group was set to an expression 0.1 TPM or less to have clear separation in terms of expression (factor 10) from the positive group. The YAP and melanoma phenotypic state scores were obtained by averaging the expression of detailed marker genes, or for the mice, from their murine orthologues as described in ref. [52]. The pigmentation state was defined by the expression of MITF, MLANA, TRPM1, DCT and TYR; the starved-like melanoma cell phenotype by the expression of CD36, DLX5, IP6K3, PAX3 and TRIM67; the invasive state by the expression of AXL, CYR61, TCF4, LOXL2, TNC and WNT5A; and the neural crest cell-like phenotypic state by the expression of AQP1, GFRA2, L1CAM, NGFR, SLC22A17 and TMEM176B[52]. The scoring of YAP1 activation was determined from the expression of CYR61, CTGF, TEAD4, LATS2 and CRIM1. Yap scoring was obtained by averaging the fold change of each Yap1 target. The anoikis-resistance score was calculated on the basis of the expression of S100A7A, MTPN, ATP10B, S100A8, RSAD2, RENBP, CDHR1 and CD36. The ER-activation score was calculated according to the expressions of GATA4, SDK2, EGR3, IL19, GSG1L, RSPO1, PGR, IL24 and PDZK1. Expression data from human and mouse normal tissue were downloaded from the Human Protein Atlas (https://www.proteinatlas.org/) and from the EBI expression atlas (https://www.ebi.ac.uk/gxa/home), respectively, both accessed on 7 October 2022. The anatogram was generated using the gganatogram R package.
RNA was extracted from cells and mouse tumours using the miRNeasy kit (Qiagen, 217004), according to the manufacturer’s protocol. RNA integrity (RIN) was measured using an Agilent Bioanalyser 2100 (Agilent Technologies) and an RNA nano 6000 kit (5067-1511, Agilent Technologies). Only RNA with an RNA integrity number (RIN) of more than 7 was used for analysis. This threshold led to the sequencing of 72 mouse melanoma cell lines, 36 human melanoma cell lines and 32 mouse tumours. RNA concentrations were measured using a NanoDrop (NanoDrop Technologies). […] The libraries were equimolarly pooled and subjected to qPCR quantification using the KAPA library quantification kit (Roche). Sequencing was carried out on a NovaSeq 6000 instrument (Illumina) based on a 2 × 100 cycle mode (paired-end reads, 100 bases) using an S1 flow cell to obtain approximately 35 million clusters (70 million raw paired-end reads) per sample. Reads were mapped to the mm10 mouse reference genome (gencode m13 version-GRCm38.p5) or hg38 human reference genome (gencode 42 version-GRCh38.p13) using STAR[60]. […]

Experiment [5] concerns human melanoma cell lines (MDA-MB-435S, Dauv-1, 501mel-GRPR). Description: Matrigel invasion assay, human melanoma cells. Format: cell-based. The note with it: 10 nM GRP and/or 1 µM RC-3095, 24 h, 1% FCS. As to the method: Matrigel invasion assays were done in transwell plates with 8.0-µm pores (353097, Falcon) coated with 100 µl of 200 µg ml^−1 Matrigel. Depending on the experiments, cells were seeded directly or 24 h after transfection in low-serum medium (0.5% FCS for murine cells and 1% for human cell lines) with 10 nM GRP, 1 µM RC-3095, and/or 1 µM IC 182,780, or in 10% FCS. Then, 24 hours after stimulation, inserts were washed with PBS and non-invading cells were removed. Cells in the inserts were fixed in methanol at −20 °C overnight. The inserts were rinsed and the membrane carefully removed using a sharp scalpel. The membrane was mounted in prolong glass DAPI (1.5 µg ml^−1). Assays were performed in triplicate and automatic counting of invading cells was done using an Image/Fiji macro (10.5281/zenodo.14509394). Sequences of siRNAs are given in Supplementary Table 11.

No end group written: not given here.

Results on one substance are retold here after article PMC12267067, “Targeting GRPR for sex hormone-dependent cancer after loss of E-cadherin” (Nature, 2025).

For “GRP: GRPR's natural agonist, endogenous ligand of GRPR (4011670 bachem) (VPLPAGGGTVLTKMYPRGNHWAVGHLM; not fully specified; ends and bridges not checked; UniProt P07492 24-50, looked up)”, the “anoikis resistance (apoptotic cells without matrix attachment), GRPR+ human cells” value in experiment [1] is given as “promoted”. In addition, the “GSEA YAP activation, GRP vs. Mock: NES” value in experiment [2] (501mel-GRPR, FDR <0.0001) is recorded as 2.07; in experiment [2] (Dauv-1, FDR <0.0001), 2.21; in experiment [2] (MDA-MB-435S, FDR =0.0408), 1.32; in experiment [4] (1014-Ct, female Ecad, Grpr-negative, FDR 0.585) it was 0.936; in experiment [4] (1014-Grpr, female Ecad, FDR <0.0001) it was 2.77; in experiment [4] (1064-par, female ΔEcad, FDR <0.0001), 2.34. Besides, the “GSEA YAP activation, GRP vs. Mock: NES” value in experiment [4] (1181-Ct, male Ecad, Grpr-negative, FDR 0.986) was determined as 0.527; in experiment [4] (1181-Grpr, male Ecad, FDR 0.003) it was 1.66. The “anoikis resistance (apoptotic cells without matrix attachment), GRPR+ mouse cells” value in experiment [3] (1057, 10 nM GRP and/or 1 µM RC, poly-HEMA, low serum, annexin V/7-AAD) is “promoted”. Moreover, in experiment [3] (male ∆Ecad (1062) and female Ecad (1014) cells, 10 nM GRP), the “anoikis resistance, Grpr-negative mouse cells” value was “did not promote anoikis resistance”. The “invasion (number of invading cells), GRPR-positive human lines” value in experiment [5] is reported as “promoted”.
